These results are taken from article PMC7602804 (Nutrients, 2020).

Data set [1] relates to pepsin, then trypsin, chymotrypsin and elastase. The experiment in a line: In vitro simulation of gastrointestinal digestion. The format is in vitro ADME. As to conditions: 37 °C. The protocol: The purified milk peptides and the synthesized PIGSENSEKTTMPLW and […] peptides were subjected to digestion, essentially as described in [5, 26] with few modifications. The peptides were dissolved in 0.15 M of NaCl with a pH of 2.5 at a concentration of 1 mg/mL and incubated with pepsin from porcine gastric mucosa in a 1:100 w/w enzyme to substrate ratio for 60 min at 37 °C. Before digestion with pancreatic proteases, the sample was lyophilized and washed twice in deionized water. Trypsin and chymotrypsin from a bovine pancreas (Worthington Biochemical Corporation, NJ, USA) (1:100 w/w) and elastase (Worthington) (1:500 w/w) were added in 50 mM of ammonium bicarbonate buffer (pH = 7.6) and the mixture was incubated for 60 min at 37 °C. In digests of the synthesized peptides, aliquots were sampled and analyzed after 5 min, 30 min, 60 min and 270 min incubation with the intestinal enzymes. Bovine milk osteopontin was purified as previously described and incubated with the digestive proteases to validate their activity. The digested milk peptides were separated by RP-HPLC on an Aeris C4 widepore column (Phenomenex, Værløse, Denmark) connected to a Shimadzu (Kyoto, Japan) HPLC system. The peptides were separated in 0.1% TFA (buffer A) and eluted with a gradient of 60% acetonitrile in 0.1% TFA (buffer B) at 40 °C. The gradient was developed over 59 min (0–5 min: 0% buffer B; 5–49 min: 0–98% buffer B; 49–59 min: 98% buffer B) at a flow rate of 0.85 mL/min. The peptides were detected by measuring the absorbance at 226 nm and analyzed by matrix-assisted laser desorption ionization time-of-flight mass spectrometry (MALDI-MS).
MALDI-MS was performed using a Bruker Autoflex III instrument (Bruker Daltonics, Bremen, Germany). The analysis was performed using a saturated solution of α-cyano-4-hydroxycinnamic acid. The instrument was operated in reflected positive ionization mode and calibrated in the mass range of 1000 to 3200 Da using a peptide calibration standard (Bruker Daltonics, Bremen, Germany). The theoretical peptide masses were calculated using the General Protein/Mass Analysis for Windows software (Lighthouse Data, Odense, Denmark).

In data set [2] the test system is porcine brain endothelial cell (PBEC) monolayers. Briefly: Apical to basolateral transport of milk peptides across porcine brain endothelial cell (PBEC) monolayers, blood-brain barrier model. The format is in vitro ADME. As to conditions: 2.5 h. On the procedure: Capillaries were isolated from the brain cortices of domestic pigs 5–6 months old as previously described. PBECs were cultured by plating the capillaries in T75 flasks coated with collagen IV (500 µg/mL) and fibronectin (100 µg/mL) in DMEM-F12 medium, supplemented with 10% plasma-derived serum (First Link, Wolverhampton, UK), heparin (15 U), 100 units/mL of penicillin and 100 µg/mL of streptomycin (PBEC growth medium), and cultured in an incubator with humidified 5% CO2/95% air at 37 °C. Puromycin (4 µg/mL) was added to the growth medium for the first three days to obtain a pure culture of PBECs.
Astrocyte conditioned medium was collected every third day from primary rat astrocytes, sterile filtered and frozen until use. Isolation of primary rat astrocytes and preparation of astrocyte conditioned media were carried out as described in [20].
PBECs were grown until 70–80% confluency as described above and then passaged onto polyester culture inserts with a pore size of 0.4 μm and a growth area of 1.12 cm^2 (Costar, Corning, NY, USA) at a density of 1.1 × 10^5 cells/cm^2 in the PBEC growth medium. In the basolateral chamber, the medium consisted of 1 mL of PBEC growth medium and 0.5 mL of astrocyte conditioned medium. The medium was supplemented with differentiation factors: 550 nM of hydrocortisone, 250 μM of 8-(4-chlorophenylthio)adenosine-3′,5′-cyclic monophosphate (cAMP) and 17.5 μM of RO-201724 two days after seeding. The next day, the integrity of the PBEC monolayer was confirmed by measuring the TEER. Only PBEC monolayers with TEER values higher than 800 Ω cm^2 were used for the transport analysis.
Following the TEER value measurement, the Caco-2 and PBEC monolayers were gently washed twice with phosphate-buffered saline, and the transport medium (Hanks’ Balanced Salt solution supplemented with 10 mM of HEPES) was added to the apical and basolateral compartments. The inserts were incubated for 15 min or 2.5 h with the purified milk peptides (0.1 mg/mL) or the synthetic PIGSENSEKTTMPLW peptide (2 µg/mL), after which medium from the apical and basolateral compartments were collected for liquid chromatography tandem mass spectrometry (LC-MS/MS) analysis. Inserts incubated with a medium without peptides served as the control in the transport experiments. Membrane integrity was validated by addition of D-[1-^14C]-Mannitol (3.5 µM, 56.8 mCi/mmol) (Perkin Elmer, Waltham, MA, USA) to the upper chamber of the culture inserts with or without milk peptides for 2.5 h. The passive permeability experiments were performed on four or five individual culture inserts. Basolateral samples were mixed with Ultima Gold liquid scintillation fluid (Perkin Elmer) and counted in a Tri-Carb 2810 TR scintillation counter (Perkin Elmer). The apparent permeability coefficient (Papp, cm/s) was determined as Papp = (dQ/dt)/(AC0) where dQ/dt is the steady state flux (cpm/s), A is the surface area of the cell culture insert membrane and C0 is the initial concentration in the apical compartment (cpm/mL).
LC-MS/MS analysis was performed on a TripleTOF 6600 mass spectrometer equipped with an Exigent nanoLC 415 system (AB Sciex, Les Ulis, France). All samples were micro-purified using 3 M Empore C18 discs packed in pipette tips. The lyophilized samples were dissolved in 0.1% formic acid, injected on a trap column (2 cm × 100 µm inner diameter) and separated on an analytical column packed in-house in a pulled emitter (15 cm × 75 µm inner diameter). All columns were packed with ReproSil-Pur C18-AQ 3 µm resin (courtesy of Dr. Marisch, Ammerbuch-Entringen, Germany). […]

No end group written: not given here.

PIGSENSEKTTMPLW [PIGSENSEKTTMPLW]: in data set [1] (1 mg/mL, pepsin 1:100 w/w, 0.15 M NaCl pH 2.5, 60 min, chymotrypsin 1:100 and elastase 1:500 w/w, 50 mM ammonium bicarbonate pH 7.6, 37 °C, sampled 5, 30, 60 and 270 min, MALDI-MS (osteopontin: SDS-PAGE)), the “Stability of the synthetic peptide / control in simulated gastrointestinal digestion” value is “observed even after 270 min of digestion”. The “Resistance to simulated gastrointestinal digestion within the purified milk peptide mix” value in data set [1] (purified milk peptides 1 mg/mL, pepsin 1:100, pH 2.5, 60 min, chymotrypsin 1:100, elastase 1:500, pH 7.6, 60 min, RP-HPLC fractions, MALDI-MS, before and after digestion) is “observed”. Moreover, the “Peptide identified in the basal compartment (brain side) of the PBEC BBB model (transported)” value in data set [2] (primary PBEC on polyester inserts 0.4 μm, astrocyte conditioned medium, TEER higher than 800 Ω cm^2, A-B, mix of 192 milk peptides 0.1 mg/mL apical, HBSS + 10 mM HEPES, LC-MS/MS, five independent studies, αS1 peptide 'or' its truncated peptides stated collectively) is on record as “identified in all experiments”. The “Fate of synthetic peptide during transport over PBEC monolayers” value in data set [2] (synthetic peptide 2 µg/mL apical, LC-MS/MS of basal medium) is recorded as “cleaved by carboxypeptidases during the transport”.
